Assay results taken from PubChem BioAssay (NCI).
“And” between values parts separate entries of the source, which are not always exact repeats. Identical values can stand only once.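 48-hour exposure; five concentrations; linearly interpolated endpoints. GI50: concentration for 50% inhibition of growth. TGI denotes the concentration required for complete inhibition of growth.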

Legend:
Test in all cases: NCI tumour cell line growth inhibition, 48 h
ACHN renal = system: ACHN renal
HCT-15 colon = system: HCT-15 colon
K-562 leukemia = system: K-562 leukemia
LOX IMVI melanoma = system: LOX IMVI melanoma
OVCAR-8 ovarian = system: OVCAR-8 ovarian
SR leukemia = system: SR leukemia
UO-31 renal = system: UO-31 renal
SNB-75 CNS = system: SNB-75 CNS
HS 578T breast = system: HS 578T breast
MDA-N = system: MDA-N

Row | SMILES | TGI (ACHN renal) | TGI (HCT-15 colon) | TGI (K-562 leukemia) | TGI (LOX IMVI melanoma) | TGI (OVCAR-8 ovarian) | TGI (SR leukemia) | GI50 (UO-31 renal) | TGI (UO-31 renal) | TGI (SNB-75 CNS) | TGI (HS 578T breast) | TGI (MDA-N)
1 | COc1cc2c(c(OC)c1OC)-c1ccc(SC)c(=O)cc1[C@@H](NCc1ccc(F)cc1)CC2 | 75 µM and 49.2 µM | 7.64 µM | 75 µM and > 100 µM | 11.9 µM and 13.5 µM | 75 µM | 12.8 µM | < 0.0075 µM | 75 µM and 95.9 µM |  |  | 
2 | COC(=O)C(=O)C(C(=O)OC)C(=O)C(=O)Nc1c(C)cccc1C (stereo unspecified) | > 100 µM | > 100 µM | > 100 µM | > 100 µM | > 100 µM | > 100 µM |  | > 100 µM | > 100 µM |  | 
3 | CCCCOCCOCCOC1=CC(=O)c2c(O)ccc(O)c2C1=O | 3.2 µM |  | 6.25 µM | 3.39 µM |  | > 10 µM |  | 2.93 µM |  | 6.5 µM | 0.329 µM
4 | CCOC(=O)c1c[nH]c(C(=O)OCC)c1-c1cccn1-c1ccccc1 | > 100 µM | > 100 µM | 45.4 µM | 32.4 µM | 59.6 µM |  |  | 77.4 µM | 52.2 µM | 59 µM | 99.2 µM
5 | Nc1nc2c(N)cc(C(F)(F)F)cc2nc1-c1ccccc1 | > 100 µM | > 100 µM | > 100 µM | > 100 µM | > 100 µM | > 100 µM |  | > 100 µM | 93.5 µM |  | 
6 | O[C@]12C=C(c3nccc4c3[nH]c3ccccc34)[C@@H]3CCN(CCCC/C=C\CC1)C[C@@]31CC3/C=C\CCCCN3[C@H]12 (stereo partly specified) | 1.05 µM | 1.02 µM | 2.84 µM | 0.84 µM | 1.51 µM |  |  | 0.463 µM | 2.88 µM | 2.9 µM | 1.31 µM
7 | FC(F)(F)c1ccccc1C1SCC2=Nc3ccccc3CN21 (stereo unspecified) |  | 27.1 µM | > 100 µM | 28.4 µM | 30.5 µM | > 100 µM |  | 24.1 µM | 36.5 µM | 27.4 µM | > 100 µM
8 | FC(F)(F)c1ccc(C2ON=C(c3ccccc3)N2C23CC4CC(CC(C4)C2)C3)cc1 (stereo unspecified) | > 10 µM | > 10 µM | > 10 µM | > 10 µM | > 10 µM | > 10 µM |  |  | > 10 µM | > 10 µM | > 10 µM
9 | C[C@@H](CC(O)C(O)C(C)(C)O)C1CCC23CC12CCC1[C@@]2(C)CCC(O)C(C)(C)C2CC(OC2OC(CO)C(O)C(O)C2O)[C@]13C (stereo partly specified) | > 10 µM | > 10 µM | > 10 µM | > 10 µM | > 10 µM |  |  | > 10 µM | > 10 µM | > 10 µM | > 10 µM
10 | O=C1Oc2ccccc2C1C/C(=N\Nc1ccccc1)c1ccccc1O (stereo unspecified) | > 100 µM | > 100 µM |  | > 100 µM | > 100 µM | 58.1 µM |  | 77.6 µM | > 100 µM | > 100 µM | > 100 µM
11 | COc1ccc2[nH]c3c(c2c1)[C@H](c1ccccc1)C[C@@H]1C(=O)N(c2ccccc2)C(=O)[C@H]31 | 42.9 µM | > 100 µM | > 100 µM | > 100 µM | 17.6 µM | 76.4 µM |  | 52.3 µM | 40.1 µM |  | 
12 | O=C(O)c1nc2ccccc2nc1Nc1ccc(Cl)c(Cl)c1 | > 100 µM | 36.1 µM | > 100 µM | > 100 µM | > 100 µM | > 100 µM |  | 33.6 µM | > 100 µM |  | > 100 µM
13 | CCOC1=C2N=C(C(CC)c3ccccc3F)N=C2C(=O)c2ccccc21 (stereo unspecified) | > 100 µM | > 100 µM | > 100 µM |  | > 100 µM | > 100 µM |  | > 100 µM | 47.8 µM |  | 
14 | CC(C)c1cccc(C(C)C)c1NC(=O)C(=O)Cc1nc2ccc([N+](=O)[O-])cc2[nH]c1=O | > 100 µM | 48.9 µM | > 100 µM | > 100 µM |  |  |  | > 100 µM | > 100 µM |  | 
15 | Cc1ccc(S(=O)c2cccs2)cc1 (stereo unspecified) | > 100 µM | > 100 µM | > 100 µM |  | > 100 µM | > 100 µM |  | > 100 µM |  |  | > 100 µM
16 | CN(C)c1ccc(/C=C/C(=O)c2ccc(O)cc2)cc1 | 61.3 µM | 40.4 µM | 8.38 µM | 45.1 µM | > 100 µM | 3.02 µM |  | > 100 µM | > 42.7 µM | > 69.7 µM | 
17 | N#CC(NNC(=O)Cc1ccccc1)c1cccc(O)c1 (stereo unspecified) | > 100 µM | > 100 µM | > 100 µM | > 100 µM | > 100 µM | > 100 µM |  | > 100 µM | > 100 µM |  | 
18 | O=c1[nH]nc(Cc2ccccc2)n1/N=C/c1cccs1 | > 100 µM | > 100 µM | > 100 µM | > 100 µM | > 100 µM |  |  | > 100 µM | > 100 µM | > 100 µM | > 100 µM
19 | Clc1ccc(Nc2nnc(CNc3ccc(-c4nnc(Nc5ccc(Cl)cc5)s4)cc3)s2)cc1 | > 100 µM | > 100 µM | > 100 µM |  |  |  |  | 44.2 µM | > 100 µM |  | 58.1 µM
20 | CN(C)CCNc1ccc2ncn3c4ccccc4c(=O)c1c23 | 10.5 µM | 13.9 µM | > 100 µM | 2.92 µM | 10.7 µM | > 100 µM |  | 17.5 µM | 16 µM |  | 
21 | CC(C)C1CNC(=O)C2(C=NC(C(C)C)CNC(=O)C3(C=N1)CCCO3)CCCO2 (stereo unspecified) | > 10 µM | > 10 µM | > 10 µM |  | > 10 µM | > 10 µM |  |  | > 10 µM | > 10 µM | > 10 µM
22 | COc1cc2ccc3c4ccccc4cnc3c2cc1OC | > 100 µM | > 100 µM | > 100 µM | > 100 µM | > 100 µM | > 100 µM |  | > 100 µM | > 100 µM |  | 
23 | Cc1c(O)c(=O)ccn1CCN | > 100 µM | > 100 µM | > 100 µM | > 100 µM | > 100 µM |  |  | > 100 µM | > 100 µM |  | 
24 | CSc1ncnc2c1cnn2Cc1cn(COCCO)nn1 | > 100 µM | > 100 µM | > 100 µM | > 100 µM |  | > 100 µM |  | > 100 µM |  | > 100 µM | 39.6 µM
25 | CC1=C(c2nc3ccccc3s2)C(=O)OC1(C)C | > 100 µM | > 100 µM | > 100 µM | > 100 µM | > 100 µM | > 100 µM |  | > 100 µM | > 100 µM |  | 
